Activity calls are given as the source filed them. How the calls were made is not given here.
System: CCRIS mutagenicity, Ames/micronucleus/aberration tests
Test: CCRIS mutagenicity studies
[1] = Test System: AMES SALMONELLA TYPHIMURIUM, Strain/Indicator: TA100, Metabolic Activation: NONE, Method: STANDARD PLATE
[2] = Test System: AMES SALMONELLA TYPHIMURIUM, Strain/Indicator: TA1537, Metabolic Activation: NONE, Method: STANDARD PLATE
[3] = Test System: AMES SALMONELLA TYPHIMURIUM, Strain/Indicator: TA1538, Metabolic Activation: NONE, Method: STANDARD PLATE
[4] = Test System: AMES SALMONELLA TYPHIMURIUM, Strain/Indicator: TA98, Metabolic Activation: NONE, Method: STANDARD PLATE
[5] = Test System: AMES SALMONELLA TYPHIMURIUM, Strain/Indicator: TA98, Metabolic Activation: RAT, LIVER, S-9, AROCLOR 1254, Method: STANDARD PLATE
[6] = Test System: AMES SALMONELLA TYPHIMURIUM, Strain/Indicator: TA100, Metabolic Activation: RAT, LIVER, S-9, AROCLOR 1254, Method: STANDARD PLATE
[7] = Test System: AMES SALMONELLA TYPHIMURIUM, Strain/Indicator: TA1535, Metabolic Activation: NONE, Method: STANDARD PLATE

With `C[n+]1ccn(CCS(C)(=O)=O)c1/C=N/O` the mutagenic call (Test System: AMES SALMONELLA TYPHIMURIUM, Strain/Indicator: TA97, Metabolic Activation: NONE, Method: STANDARD PLATE) was “inactive; negative”, the mutagenic call (Test System: AMES SALMONELLA TYPHIMURIUM, Strain/Indicator: TA97, Metabolic Activation: RAT, LIVER, S-9, Method: STANDARD PLATE) was “inactive; negative” and the mutagenic call [1] was “inactive; negative”. For the same compound, the mutagenic call (Test System: AMES SALMONELLA TYPHIMURIUM, Strain/Indicator: TA100, Metabolic Activation: RAT, LIVER, S-9, Method: STANDARD PLATE) was “inactive; negative”, the mutagenic call (Test System: AMES SALMONELLA TYPHIMURIUM, Strain/Indicator: TA104, Metabolic Activation: NONE, Method: STANDARD PLATE) was “inactive; negative” and the mutagenic call (Test System: AMES SALMONELLA TYPHIMURIUM, Strain/Indicator: TA104, Metabolic Activation: RAT, LIVER, S-9, Method: STANDARD PLATE) was “inactive; negative”. For the same compound, the mutagenic call [2] was “inactive; negative”, the mutagenic call (Test System: AMES SALMONELLA TYPHIMURIUM, Strain/Indicator: TA1537, Metabolic Activation: RAT, LIVER, S-9, Method: STANDARD PLATE) was “inactive; negative” and the mutagenic call [3] was “inactive; negative”. For the same compound, the mutagenic call (Test System: AMES SALMONELLA TYPHIMURIUM, Strain/Indicator: TA1538, Metabolic Activation: RAT, LIVER, S-9, Method: STANDARD PLATE) was “inactive; negative”.

For `Cc1ccc(C)c(C)c1`, the mutagenic call (Test System: AMES SALMONELLA TYPHIMURIUM, Strain/Indicator: TA97A, Metabolic Activation: NONE, Method: STANDARD PLATE) was “inactive; negative”, the mutagenic call (Test System: AMES SALMONELLA TYPHIMURIUM, Strain/Indicator: TA97A, Metabolic Activation: RAT, LIVER, S-9, AROCLOR 1254, Method: STANDARD PLATE) was “inactive; negative” and the mutagenic call [4] was “inactive; negative”. The mutagenic call [5] was “inactive; negative”, the mutagenic call [1] was “inactive; negative” and the mutagenic call [6] was “inactive; negative”. The mutagenic call (Test System: AMES SALMONELLA TYPHIMURIUM, Strain/Indicator: TA102, Metabolic Activation: NONE, Method: STANDARD PLATE) was “inactive; negative” and the mutagenic call (Test System: AMES SALMONELLA TYPHIMURIUM, Strain/Indicator: TA102, Metabolic Activation: RAT, LIVER, S-9, AROCLOR 1254, Method: STANDARD PLATE) was “inactive; negative”.

For `CC(=O)Nc1cccc(N)c1`, the mutagenic call (Test System: AMES SALMONELLA TYPHIMURIUM, Strain/Indicator: TA97, Metabolic Activation: HAMSTER, LIVER, S-9, AROCLOR 1254 (10%), Method: PREINCUBATION) was “active; positive”, the mutagenic call (Test System: AMES SALMONELLA TYPHIMURIUM, Strain/Indicator: TA97, Metabolic Activation: NONE, Method: PREINCUBATION) was “inactive; negative” and the mutagenic call (Test System: AMES SALMONELLA TYPHIMURIUM, Strain/Indicator: TA97, Metabolic Activation: RAT, LIVER, S-9, AROCLOR 1254 (10%), Method: PREINCUBATION) was “active; positive”. The mutagenic call (Test System: AMES SALMONELLA TYPHIMURIUM, Strain/Indicator: TA98, Metabolic Activation: HAMSTER, LIVER, S-9, AROCLOR 1254 (10%), Method: PREINCUBATION) was “active; positive”, the mutagenic call (Test System: AMES SALMONELLA TYPHIMURIUM, Strain/Indicator: TA98, Metabolic Activation: NONE, Method: PREINCUBATION) was “inactive; negative” and the mutagenic call (Test System: AMES SALMONELLA TYPHIMURIUM, Strain/Indicator: TA98, Metabolic Activation: RAT, LIVER, S-9, AROCLOR 1254 (10%), Method: PREINCUBATION) was “active; positive”. For the same compound, the mutagenic call (Test System: AMES SALMONELLA TYPHIMURIUM, Strain/Indicator: TA100, Metabolic Activation: HAMSTER, LIVER, S-9, AROCLOR 1254 (10%), Method: PREINCUBATION) was “active; positive”, the mutagenic call (Test System: AMES SALMONELLA TYPHIMURIUM, Strain/Indicator: TA100, Metabolic Activation: NONE, Method: PREINCUBATION) was “inactive; negative” and the mutagenic call (Test System: AMES SALMONELLA TYPHIMURIUM, Strain/Indicator: TA100, Metabolic Activation: RAT, LIVER, S-9, AROCLOR 1254 (10%), Method: PREINCUBATION) was “inactive; negative”. For the same compound, the mutagenic call (Test System: AMES SALMONELLA TYPHIMURIUM, Strain/Indicator: TA1535, Metabolic Activation: HAMSTER, LIVER, S-9, AROCLOR 1254 (10%), Method: PREINCUBATION) was “inactive; negative”, the mutagenic call (Test System: AMES SALMONELLA TYPHIMURIUM, Strain/Indicator: TA1535, Metabolic Activation: NONE, Method: PREINCUBATION) was “inactive; negative” and the mutagenic call (Test System: AMES SALMONELLA TYPHIMURIUM, Strain/Indicator: TA1535, Metabolic Activation: RAT, LIVER, S-9, AROCLOR 1254 (10%), Method: PREINCUBATION) was “inactive; negative”.

With `C=CCCCCCCCC` the mutagenic call (Test System: AMES SALMONELLA TYPHIMURIUM, Strain/Indicator: TA98, Metabolic Activation: MOUSE, LIVER, S-9, Method: STANDARD PLATE) was “inactive; negative”, the mutagenic call [4] was “inactive; negative” and the mutagenic call (Test System: AMES SALMONELLA TYPHIMURIUM, Strain/Indicator: TA100, Metabolic Activation: MOUSE, LIVER, S-9, Method: STANDARD PLATE) was “inactive; negative”. For the same compound, the mutagenic call [1] was “inactive; negative”, the mutagenic call [7] was “inactive; negative” and the mutagenic call [3] was “inactive; negative”.

For `NC[C@H]1CCCN1.O=C([O-])C1(C(=O)[O-])CCC1.[Pt+2]`, the mutagenic call [4] was “inactive; negative”, the mutagenic call (Test System: AMES SALMONELLA TYPHIMURIUM, Strain/Indicator: TA98, Metabolic Activation: RAT, LIVER, S-9, PHENOBARBITAL AND 5,6-BENZOFLAVONE, Method: STANDARD PLATE) was “inactive; negative” and the mutagenic call [1] was “inactive; negative”. The mutagenic call (Test System: AMES SALMONELLA TYPHIMURIUM, Strain/Indicator: TA100, Metabolic Activation: RAT, LIVER, S-9, PHENOBARBITAL AND 5,6-BENZOFLAVONE, Method: STANDARD PLATE) was “inactive; negative”, the mutagenic call [7] was “inactive; negative” and the mutagenic call (Test System: AMES SALMONELLA TYPHIMURIUM, Strain/Indicator: TA1535, Metabolic Activation: RAT, LIVER, S-9, PHENOBARBITAL AND 5,6-BENZOFLAVONE, Method: STANDARD PLATE) was “inactive; negative”. The mutagenic call [2] was “inactive; negative”, the mutagenic call (Test System: AMES SALMONELLA TYPHIMURIUM, Strain/Indicator: TA1537, Metabolic Activation: RAT, LIVER, S-9, PHENOBARBITAL AND 5,6-BENZOFLAVONE, Method: STANDARD PLATE) was “inactive; negative” and the mutagenic call (Test System: E. COLI, Strain/Indicator: WP2 UVRA, Metabolic Activation: NONE, Method: STANDARD PLATE) was “inactive; negative”. For the same compound, the mutagenic call (Test System: E. COLI, Strain/Indicator: WP2 UVRA, Metabolic Activation: RAT, LIVER, S-9, PHENOBARBITAL AND 5,6-BENZOFLAVONE, Method: STANDARD PLATE) was “inactive; negative”.

With `O=c1[nH]cnc2[nH]ncc12` the mutagenic call (Test System: AMES SALMONELLA TYPHIMURIUM, Strain/Indicator: TA98, Metabolic Activation: HAMSTER, LIVER, S-9, AROCLOR 1254, Method: STANDARD PLATE) was “inactive; negative”, the mutagenic call [4] was “inactive; negative” and the mutagenic call [5] was “inactive; negative”. For the same compound, the mutagenic call (Test System: AMES SALMONELLA TYPHIMURIUM, Strain/Indicator: TA100, Metabolic Activation: HAMSTER, LIVER, S-9, AROCLOR 1254, Method: STANDARD PLATE) was “inactive; negative”, the mutagenic call [1] was “inactive; negative” and the mutagenic call [6] was “inactive; negative”. The mutagenic call (Test System: AMES SALMONELLA TYPHIMURIUM, Strain/Indicator: TA1535, Metabolic Activation: HAMSTER, LIVER, S-9, AROCLOR 1254, Method: STANDARD PLATE) was “inactive; negative”, the mutagenic call [7] was “inactive; negative” and the mutagenic call (Test System: AMES SALMONELLA TYPHIMURIUM, Strain/Indicator: TA1535, Metabolic Activation: RAT, LIVER, S-9, AROCLOR 1254, Method: STANDARD PLATE) was “inactive; negative”. The mutagenic call (Test System: AMES SALMONELLA TYPHIMURIUM, Strain/Indicator: TA1537, Metabolic Activation: HAMSTER, LIVER, S-9, AROCLOR 1254, Method: STANDARD PLATE) was “inactive; negative”, the mutagenic call [2] was “inactive; negative” and the mutagenic call (Test System: AMES SALMONELLA TYPHIMURIUM, Strain/Indicator: TA1537, Metabolic Activation: RAT, LIVER, S-9, AROCLOR 1254, Method: STANDARD PLATE) was “inactive; negative”. For the same compound, the mutagenic call (Test System: AMES SALMONELLA TYPHIMURIUM, Strain/Indicator: TA1538, Metabolic Activation: HAMSTER, LIVER, S-9, AROCLOR 1254, Method: STANDARD PLATE) was “inactive; negative”, the mutagenic call [3] was “inactive; negative” and the mutagenic call (Test System: AMES SALMONELLA TYPHIMURIUM, Strain/Indicator: TA1538, Metabolic Activation: RAT, LIVER, S-9, AROCLOR 1254, Method: STANDARD PLATE) was “inactive; negative”. The mutagenic call (Test System: MOUSE LYMPHOMA, Strain/Indicator: L5178Y (TK+/TK-), Metabolic Activation: NONE, Method: SUSPENSION/PLATE) was “inactive; negative. reevaluation of results: negative” and the mutagenic call (Test System: MOUSE LYMPHOMA, Strain/Indicator: L5178Y (TK+/TK-), Metabolic Activation: RAT, LIVER, S-9, AROCLOR 1254, Method: SUSPENSION/PLATE) was “inactive; negative. reevaluation of results: negative”.

— PubChem BioAssay AID1259407 (Chemical Carcinogenesis Research Information System (CCRIS), 2018)
